# Measured values from patent US20230099344A1, “COMPOUNDS AND METHODS FOR THE TARGETED DEGRADATION OF IRAK-4” (Arvinas Operations, Inc., priority 2021, published 2023).
# Tests used:
# Type in all cases: cell-based
# IL6 [1] = test: LPS stimulated IL6 inhibition assay in PBMC; conditions: Homo sapiens, PBMC, 24 h, human PBMCs, LPS stimulation, compound overnight, IL6 by MSD after 24 hrs; for Dmax: read-out: LPS Stim IL6 inhibition Dmax; for IC50: read-out: LPS stim IL6 inhibition IC50
# Summary of the method: (§1)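 Primary human PBMCs plated at 2.0×10^6 cells/mL are incubated with compound overnight. Stimulation follows using the donor's EC50 concentration of agonist. MSD detects secreted IL6/IL8 at 24 hrs.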
# IL6 [2] = test: R848 stimulated IL6 inhibition assay in PBMC; conditions: PBMC, human PBMCs, R848 stimulation, compound overnight, IL6 by MSD after 24 hrs; for Dmax: Homo sapiens, 24 h, read-out: R848 stim IL6 inhibition Dmax; for IC50: read-out: R848 stim IL6 inhibition IC50
# Summary of the method: as §1
# IRAK-4 = biological target: T1, IRAK-4 (Homo sapiens, UniProt Q9NWZ3); test: IRAK-4 ELISA, PBMC degradation; parameters: endogenous in cells; host or cells: PBMC; conditions: treated overnight
# T1 sequence (Q9NWZ3 1-460): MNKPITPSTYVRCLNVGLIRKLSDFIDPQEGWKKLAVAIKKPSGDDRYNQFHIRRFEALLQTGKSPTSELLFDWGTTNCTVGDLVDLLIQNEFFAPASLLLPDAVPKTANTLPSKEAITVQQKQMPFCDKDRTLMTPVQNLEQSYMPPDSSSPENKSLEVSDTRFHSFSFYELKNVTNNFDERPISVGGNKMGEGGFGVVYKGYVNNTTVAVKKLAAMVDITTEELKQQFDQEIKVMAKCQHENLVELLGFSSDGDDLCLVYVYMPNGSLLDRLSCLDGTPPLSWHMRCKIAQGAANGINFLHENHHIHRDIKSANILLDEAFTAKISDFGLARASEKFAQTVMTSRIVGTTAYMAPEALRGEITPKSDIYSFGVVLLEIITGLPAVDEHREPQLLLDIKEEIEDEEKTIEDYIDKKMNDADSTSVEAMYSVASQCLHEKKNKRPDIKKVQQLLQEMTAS
# Summary of the method: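 Overnight compound treatment, started on the day of plating, of OCI-Ly10 (1×10^6/ml) and PBMC (2×10^6/ml) cultures. Lysates are collected and IRAK-4 content is read by sandwich ELISA.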
SMILES,IC50 (IL6 [1]) [nM],IC50 (IL6 [2]) [nM],DC50 (IRAK-4) [nM],Dmax (IRAK-4) [%],PBMC DC90 (IRAK-4),Dmax (IL6 [1]) [%],Dmax (IL6 [2]) [%]
COc1cc(N2CC(F)(CN3CCC(n4cc5cc(NC(=O)c6cnn7cccnc67)c(OCC6CC6)cc5n4)CC3)C2)cc2c1C(=O)N(C1CCC(=O)NC1=O)C2=O (stereo not drawn) [Example 240],50 to 100,10 to 50,< 1,80 to 90,A (A represents a DC90 value <10.0 nM),80 to 90,≥ 90
O=C1CCC(N2Cc3ccc(N4CCC(CN5CCC(N6Cc7cc(NC(=O)c8cnn9cccnc89)c(N8CCC(N9CCC9)CC8)cc7C6=O)CC5)CC4)cc3C2=O)C(=O)N1 (stereo not drawn) [Example 49],< 10,< 10,< 1,≥ 90,A (A represents a DC90 value <10.0 nM),≥ 90,≥ 90
O=C1CCC(N2Cc3ccc(N4CCC(CN5CCC(n6cc7cc(NC(=O)c8cnn9cccnc89)c(OCC8CC8)cc7n6)CC5)CC4)cc3C2=O)C(=O)N1 (stereo not drawn) [Example 155],< 10,< 10,< 1,≥ 90,A (A represents a DC90 value <10.0 nM),80 to 90,≥ 90
CC(C)Oc1cc2c(cc1NC(=O)c1cnn3cccnc13)CN(C1CCN(CC3(F)CN(c4cc(F)c5c(c4)C(=O)N(C4CCC(=O)NC4=O)C5)C3)CC1)C2=O (stereo not drawn) [Example 108],10 to 50,10 to 50,1 to 5,≥ 90,B (B represents a DC90 value ≥10.0 nM and <25.0 nM),80 to 90,≥ 90
CC(C)Oc1cc2c(cc1NC(=O)c1cnn3cccnc13)CN(C1CCN(CC3CCN(c4ccc5c(c4)C(=O)N([C@H]4CCC(=O)NC4=O)C5=O)CC3)CC1)C2=O [Example 48],10 to 50,10 to 50,< 1,≥ 90,A (A represents a DC90 value <10.0 nM),70 to 80,≥ 90
CC(C)Oc1cc2c(cc1NC(=O)c1cnn3cccnc13)CN(C1CCN(CC3CCN(c4ccc5c(c4F)CN(C4CCC(=O)NC4=O)C5=O)CC3)CC1)C2=O (stereo not drawn) [Example 41],10 to 50,< 10,< 1,80 to 90,A (A represents a DC90 value <10.0 nM),70 to 80,≥ 90
CC(C)Oc1cc2c(cc1NC(=O)c1cnn3cccnc13)CN(C[C@@H](F)C1CN(CC3CCN(c4ccc5c(c4)C(=O)N(C4CCC(=O)NC4=O)C5=O)CC3)C1)C2=O (stereo partly drawn) [Example 19],10 to 50,10 to 50,1 to 5,80 to 90,A (A represents a DC90 value <10.0 nM),80 to 90,≥ 90
O=C1CCC(N2C(=O)c3ccc(N4CCC(CN5CCC(n6cc7cc(NC(=O)c8cnn9cccnc89)c(N8CCC(N9CCC9)CC8)cc7n6)CC5)CC4)cc3C2=O)C(=O)N1 (stereo not drawn) [Example 150],50 to 100,10 to 50,1 to 5,80 to 90,C (C represents a DC90 value ≥25.0 nM and <50 nM),80 to 90,≥ 90
COc1cc(N2CC(F)(CN3CCC(n4cc5cc(NC(=O)c6cnn7cccnc67)c(OC(C)C)nc5n4)CC3)C2)cc2c1C(=O)N(C1CCC(=O)NC1=O)C2=O (stereo not drawn) [Example 241],≥ 100,10 to 50,1 to 5,70 to 80,B (B represents a DC90 value ≥10.0 nM and <25.0 nM),,80 to 90
CC(C)Oc1cc2c(cc1NC(=O)c1cnn3cccnc13)CN(C1CCN(CC3CCN(c4ccc(F)c(C(=O)NC5CCC(=O)NC5=O)c4)CC3)CC1)C2=O (stereo not drawn) [Example 303],10 to 50,10 to 50,5 to 10,80 to 90,C (C represents a DC90 value ≥25.0 nM and <50 nM),70 to 80,≥ 90
O=C1CCC(N2C(=O)c3ccc(N4CC5(C4)CN([C@H]4CC[C@H](n6cc7cc(NC(=O)c8cnn9cccnc89)c(OCC8CC8)cc7n6)CC4)C5)cc3C2=O)C(=O)N1 (stereo partly drawn) [Example 360],< 10,< 10,1 to 5,≥ 90,B (B represents a DC90 value ≥10.0 nM and <25.0 nM),80 to 90,≥ 90
O=C1CCC(N2C(=O)c3ccc(N4CC(F)(CN5CCC(N6Cc7cc(NC(=O)c8cnn9cccnc89)c(N8CCC(N9CCC9)CC8)cc7C6=O)CC5)C4)cc3C2=O)C(=O)N1 (stereo not drawn) [Example 116],< 10,< 10,1 to 5,≥ 90,B (B represents a DC90 value ≥10.0 nM and <25.0 nM),80 to 90,≥ 90

# More lines, main results first:
IC50 (IL6 [1]) [nM],IC50 (IL6 [2]) [nM],DC50 (IRAK-4) [nM],Dmax (IRAK-4) [%],PBMC DC90 (IRAK-4),SMILES,Dmax (IL6 [1]) [%],Dmax (IL6 [2]) [%]
< 10,10 to 50,≥ 10,≥ 90,A (A represents a DC90 value <10.0 nM),CN1CC(Oc2cc3nn(C4CCN(CC5(F)CN(c6ccc7c(c6)C(=O)N(C6CCC(=O)NC6=O)C7=O)C5)CC4)cc3cc2NC(=O)c2cnn3cccnc23)C1 (stereo not drawn) [Example 263],< 70,≥ 90
≥ 100,10 to 50,< 1,80 to 90,A (A represents a DC90 value <10.0 nM),C=Nc1c(C(=O)Nc2cc3cn(C4CCN(CC5(F)CN(c6cccc7c6n(C)c(=O)n7C6CCC(=O)NC6=O)C5)CC4)nc3cc2C2CC2)cnn1/C=C\C (stereo not drawn) [Example 389],≥ 90,≥ 90
50 to 100,10 to 50,1 to 5,80 to 90,A (A represents a DC90 value <10.0 nM),O=C1CCC(N2Cc3c(ccc(N4CC(F)(CN5CCC(n6cc7cc(NC(=O)c8cnn9cccnc89)c(OCC(F)F)cc7n6)CC5)C4)c3F)C2=O)C(=O)N1 (stereo not drawn) [Example 251],< 70,80 to 90
10 to 50,10 to 50,< 1,≥ 90,A (A represents a DC90 value <10.0 nM),CC(C)Oc1cc2c(cc1NC(=O)c1cnn3cccnc13)CN(C[C@@H](F)C1CCN(CC3CN(c4cccc5c4n(C)c(=O)n5C4CCC(=O)NC4=O)C3)CC1)C2=O (stereo partly drawn) [Example 382],70 to 80,≥ 90
10 to 50,10 to 50,< 1,≥ 90,A (A represents a DC90 value <10.0 nM),CCN([C@H]1CC[C@H](n2cc3cc(NC(=O)c4cnn5cccnc45)c(OCC4CC4)cc3n2)CC1)[C@H]1C[C@H](Oc2ccc3c(c2)C(=O)N(C2CCC(=O)NC2=O)C3=O)C1 (stereo partly drawn) [Example 373],70 to 80,80 to 90
10 to 50,10 to 50,1 to 5,≥ 90,A (A represents a DC90 value <10.0 nM),CN(C1CN(c2ccc(C(=O)NC3CCC(=O)NC3=O)c(F)c2)C1)[C@H]1CC[C@H](n2cc3cc(NC(=O)c4cnn5cccnc45)c(OCC4CC4)cc3n2)CC1 (stereo partly drawn) [Example 368],70 to 80,≥ 90
10 to 50,10 to 50,< 1,≥ 90,A (A represents a DC90 value <10.0 nM),CC(C)Oc1nc2c(cc1NC(=O)c1cnn3cccnc13)CN(C1CCN(CC3CN(c4ccc(C(=O)NC5CCC(=O)NC5=O)c(F)c4)C3)CC1)C2=O (stereo not drawn) [Example 402],< 70,80 to 90
< 10,< 10,1 to 5,≥ 90,A (A represents a DC90 value <10.0 nM),CN(C1CN(c2ccc3c(c2)CN(C2CCC(=O)NC2=O)C3=O)C1)[C@H]1CC[C@H](N2Cc3cc(NC(=O)c4cnn5cccnc45)c(N4CCC(N5CCC5)CC4)cc3C2=O)CC1 (stereo partly drawn) [Example 370],≥ 90,≥ 90
50 to 100,10 to 50,1 to 5,≥ 90,A (A represents a DC90 value <10.0 nM),O=C1CC[C@H](N2C(=O)c3ccc(N4CC(F)(CN5CCC(n6cc7cc(NC(=O)c8cnn9cccnc89)c(OCC8CC8)cc7n6)CC5)C4)cc3C2=O)C(=O)N1 [Example 254],< 70,≥ 90
10 to 50,50 to 100,1 to 5,≥ 90,A (A represents a DC90 value <10.0 nM),O=C1CCC(N2C(=O)c3ccc(N4CCC5(CC4)CC(CN4CCC(n6cc7cc(NC(=O)c8cnn9cccnc89)c(OCC8CC8)cc7n6)CC4)C5)cc3C2=O)C(=O)N1 (stereo not drawn) [Example 261],80 to 90,80 to 90
